Results as given in ChEMBL document CHEMBL5696443 (Clin Cancer Res, 2016).
Values belong to the compound of their own block, whether it stands above or below them. Activity calls are given as the source filed them. The calls are words filed in the database; no cut-off is given here.

Assays:
[1] = Average plasma concentration in CB-17/SCID mouse implanted with mouse BaF3 cells expressing EML4-ALK G1202R mutant at 60 mg/kg, po administered once daily for 7 days by LC-MS/MS analysis; type: ADME, organism-based; settings: in vivo, 168 h, time 7 day
BaF3 [2] = experiment: animal or person; settings: Mus musculus, BaF3, po, 192 h, read-out: TGI
[3] = Protein binding in human plasma at 600 mg, administered twice a day; type: ADME, cell-free; settings: read-out: PPB (converted)
in vitro = settings: mouse, BaF3 cells
[4] = Toxicity in CB-17/SCID mouse implanted with ALK positive mouse BaF3 cells expressing EML4-ALK G1202R mutant assessed as effect on body weight at 60 mg/kg, po administered once daily and measured after 6 days; type: organism-based; settings: in vivo, 144 h, time 6 day
[5] = Protein binding in human plasma assessed as unbound fraction at 600 mg, administered twice a day; type: ADME, cell-free
BaF3 [6] = experiment: Antitumor activity against mouse BaF3 cells expressing native EML4-ALK implanted in mouse assessed as tumor regression at 60 mg/kg, po administered once daily and measured after 8 days relative to control; type: functional; settings: time 8 day
[7] = tested on: EML4-ALK (Homo sapiens), Q9UM73+Q9HC35 [C1156Y]; settings: BaF3, dose 1000.0 nmol/L, time 3-5 weeks
[8] = tested on: EML4-ALK (Homo sapiens), Q9UM73+Q9HC35 [D1203N]; settings: BaF3, dose 1000.0 nmol/L, time 3-5 weeks
[9] = tested on: EML4-ALK (Homo sapiens), Q9UM73+Q9HC35 [S1206A]; settings: BaF3, dose 200.0 nmol/L, time 3-5 weeks
[10] = Protein binding in human plasma at 750 mg, administered once a day; type: ADME, cell-free; settings: read-out: PPB (converted)
[11] = tested on: EML4-ALK (Homo sapiens), Q9UM73+Q9HC35 [S1206Y]; settings: BaF3, time 3-5 weeks
[12] = tested on: EML4-ALK (Homo sapiens), Q9UM73+Q9HC35 [L1198F]; settings: BaF3, dose 200.0 nmol/L, time 3-5 weeks
[13] = tested on: EML4-ALK (Homo sapiens), Q9UM73+Q9HC35 [L1196M]; settings: BaF3, dose 1000.0 nmol/L, time 3-5 weeks
[14] = tested on: EML4-ALK (Homo sapiens), Q9UM73+Q9HC35 [F1174V]; settings: BaF3, dose 200.0 nmol/L, time 3-5 weeks
[15] = tested on: EML4-ALK (Homo sapiens), Q9UM73+Q9HC35 [S1206Y]; settings: BaF3, dose 1000.0 nmol/L, time 3-5 weeks
[16] = tested on: EML4-ALK (Homo sapiens), Q9UM73+Q9HC35 [F1174I]; settings: BaF3, dose 200.0 nmol/L, time 3-5 weeks
[17] = tested on: EML4-ALK (Homo sapiens), Q9UM73+Q9HC35 [G1202R]; settings: BaF3, time 3-5 weeks
[18] = tested on: EML4-ALK (Homo sapiens), Q9UM73+Q9HC35 [F1174C]; settings: BaF3, dose 1000.0 nmol/L, time 3-5 weeks
[19] = tested on: EML4-ALK (Homo sapiens), Q9UM73+Q9HC35 [I1171N]; settings: BaF3, dose 1000.0 nmol/L, time 3-5 weeks
[20] = tested on: EML4-ALK (Homo sapiens), Q9UM73+Q9HC35 [G1269A]; settings: BaF3, dose 1000.0 nmol/L, time 3-5 weeks
[21] = tested on: EML4-ALK (Homo sapiens), Q9UM73+Q9HC35 [S1206F]; settings: BaF3, time 3-5 weeks
[22] = tested on: EML4-ALK (Homo sapiens), Q9UM73+Q9HC35 [L1152R]; settings: BaF3, time 3-5 weeks
[23] = tested on: EML4-ALK (Homo sapiens), Q9UM73+Q9HC35 [V1180L]; settings: BaF3, dose 1000.0 nmol/L, time 3-5 weeks
[24] = tested on: EML4-ALK (Homo sapiens), Q9UM73+Q9HC35 [E1210K]; settings: BaF3, dose 1000.0 nmol/L, time 3-5 weeks
[25] = tested on: EML4-ALK (Homo sapiens), Q9UM73+Q9HC35 [L1152R]; settings: BaF3, dose 1000.0 nmol/L, time 3-5 weeks
[26] = tested on: EML4-ALK (Homo sapiens), Q9UM73+Q9HC35 [F1174L]; settings: BaF3, dose 1000.0 nmol/L, time 3-5 weeks
[27] = tested on: EML4-ALK (Homo sapiens), Q9UM73+Q9HC35 [L1198F]; settings: BaF3, dose 500.0 nmol/L, time 3-5 weeks
[28] = Protein binding in human plasma assessed as unbound fraction at 750 mg, administered once a day; type: ADME, cell-free
[29] = tested on: EML4-ALK (Homo sapiens), Q9UM73+Q9HC35 [F1174C]; settings: BaF3, time 3-5 weeks
[30] = tested on: EML4-ALK (Homo sapiens), Q9UM73+Q9HC35 [L1198F]; settings: BaF3, dose 1000.0 nmol/L, time 3-5 weeks
[31] = tested on: EML4-ALK (Homo sapiens), Q9UM73+Q9HC35 [L1152P]; settings: BaF3, time 3-5 weeks
[32] = tested on: EML4-ALK (Homo sapiens), Q9UM73+Q9HC35 [L1152P]; settings: BaF3, dose 1000.0 nmol/L, time 3-5 weeks
BaF3 [33] = experiment: animal or person; settings: Mus musculus, BaF3, po, 192 h, read-out: TGI; remark: listed apart in the source
BaF3 [34] = experiment: Antitumor activity against mouse BaF3 cells expressing native EML4-ALK implanted in mouse assessed as tumor growth inhibition at 50 mg/kg, po administered once daily and measured after 8 days relative to control; type: functional; settings: BaF3, 192 h, time 8 day, read-out: TGI
[35] = tested on: EML4-ALK (Homo sapiens), Q9UM73+Q9HC35 [G1202R]; settings: BaF3, dose 1000.0 nmol/L, time 3-5 weeks
[36] = tested on: EML4-ALK (Homo sapiens), Q9UM73+Q9HC35 [F1174V]; settings: BaF3, dose 1000.0 nmol/L, time 3-5 weeks
[37] = tested on: EML4-ALK (Homo sapiens), Q9UM73+Q9HC35 [UNDEFINED MUTATION]; settings: BaF3, dose 1000.0 nmol/L, time 3-5 weeks
[38] = tested on: EML4-ALK (Homo sapiens), Q9UM73+Q9HC35 [S1206F]; settings: BaF3, dose 1000.0 nmol/L, time 3-5 weeks
[39] = tested on: EML4-ALK (Homo sapiens), Q9UM73+Q9HC35 [L1198F]; settings: BaF3, time 3-5 weeks
[40] = tested on: EML4-ALK (Homo sapiens), Q9UM73+Q9HC35 [F1174C]; settings: BaF3, dose 200.0 nmol/L, time 3-5 weeks
[41] = Toxicity in CB-17/SCID mouse implanted with ALK positive mouse BaF3 cells expressing EML4-ALK G1202R mutant assessed as effect on body weight at 50 mg/kg, po administered once daily and measured after 6 days; type: organism-based; settings: in vivo, 144 h, time 6 day

Cave [1]: 8.817 µM
fraction unbound [3]: 0.003
IC50 (in vitro): 2070 nM
IC90 (in vitro): 7460 nM
fraction unbound [5]: 0.003
Compound: CCc1cc2c(cc1N1CCC(N3CCOCC3)CC1)C(C)(C)c1[nH]c3cc(C#N)ccc3c1C2=O [ALECTINIB]
inhibition in vivo at 60 mg/kg (BaF3 [2]): 0%
Activity [4]: Non-Toxic
Activity (BaF3 [6]): 95%

inhibition [7]: Active
inhibition [8]: Active
inhibition [9]: inactive
fraction unbound [10]: 0.028
IC90 [11]: 99 nM
inhibition [12]: inactive
inhibition [13]: Active
inhibition [14]: inactive
inhibition [15]: Active
inhibition [16]: inactive
IC90 [17]: 1040 nM
inhibition [18]: Active
inhibition [19]: Active
inhibition [20]: Active
IC90 [21]: 99 nM
IC90 [22]: 1270 nM
inhibition [23]: Active
inhibition [24]: Active
inhibition [25]: Active
inhibition [26]: Active
inhibition [27]: inactive
fraction unbound [28]: 0.028
IC90 [29]: 229 nM
inhibition [30]: Active
IC90 [31]: 1230 nM
inhibition [32]: Active
IC50 (in vitro): 1670 nM
IC90 (in vitro): 2840 nM
inhibition [35]: Active
inhibition [36]: Active
inhibition [37]: Active
inhibition [38]: Active
IC90 [39]: 1320 nM
inhibition [40]: inactive
Compound: Cc1cc(Nc2ncc(Cl)c(Nc3ccccc3S(=O)(=O)C(C)C)n2)c(OC(C)C)cc1C1CCNCC1 [CERITINIB]
inhibition in vivo at 50 mg/kg (BaF3 [33]): 14%
inhibition in vivo at 50 mg/kg (BaF3 [34]): 97%
Activity [41]: Non-Toxic
